pIC50: −log10 of the molar value. Converted amounts (≈) assume the structure as drawn.
Tests used:
[1] = target: Hepatocyte growth factor receptor (Homo sapiens) (UniProt P08581); experiment: Inhibition of MET (unknown origin) at 200 nM by electrophoretic mobility shift assay
[2] = target: Tyrosine-protein kinase ITK/TSK (Homo sapiens) (UniProt Q08881); experiment: Inhibition of ITK (unknown origin) at 200 nM by electrophoretic mobility shift assay
[3] = Aqueous solubility in PBS buffer solution at pH 7.4; type: physicochemical
[4] = target: Casein kinase I isoform epsilon (Homo sapiens) (UniProt P49674); experiment: Inhibition of CK1 epsilon (unknown origin) at 200 nM by electrophoretic mobility shift assay
CYP1A2 = target: T1, CYP1A2 (Homo sapiens, UniProt P05177); experiment: Inhibition of CYP1A2 (unknown origin) at 10 uM; type: ADME
T1 sequence (P05177 whole entry): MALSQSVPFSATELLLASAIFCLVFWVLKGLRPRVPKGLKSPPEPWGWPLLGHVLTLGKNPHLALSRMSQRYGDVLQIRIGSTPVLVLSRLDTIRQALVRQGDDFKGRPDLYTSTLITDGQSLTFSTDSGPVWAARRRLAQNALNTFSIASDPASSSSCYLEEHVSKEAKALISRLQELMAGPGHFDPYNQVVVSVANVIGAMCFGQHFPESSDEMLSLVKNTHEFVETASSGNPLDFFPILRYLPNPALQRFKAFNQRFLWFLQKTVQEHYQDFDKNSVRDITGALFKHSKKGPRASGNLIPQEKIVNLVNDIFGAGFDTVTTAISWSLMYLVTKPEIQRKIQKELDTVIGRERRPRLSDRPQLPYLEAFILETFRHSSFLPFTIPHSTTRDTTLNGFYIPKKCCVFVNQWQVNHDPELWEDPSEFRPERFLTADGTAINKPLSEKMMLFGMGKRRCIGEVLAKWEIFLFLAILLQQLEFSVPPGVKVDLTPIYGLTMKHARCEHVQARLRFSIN

[5] = target: Death-associated protein kinase 1 (Homo sapiens, UniProt P53355); experiment: Inhibition of DAPK1 (unknown origin) at 200 nM by electrophoretic mobility shift assay
CYP2C9 = CYP2C9 (Homo sapiens, UniProt P11712); experiment: Inhibition of CYP2C9 (unknown origin) at 10 uM; type: ADME
Homo sapiens = species on record: Homo sapiens; experiment: Inhibition of p70S6k (unknown origin) at 200 nM by electrophoretic mobility shift assay
[6] = Growth inhibition of human PANC1 cells after 72 hrs by CCK-8 assay; type: functional, cell-based; settings: PANC-1, 72 h
[7] = target: Protein kinase C alpha type (Homo sapiens) (UniProt P17252); experiment: Inhibition of PKCalpha (unknown origin) at 200 nM by electrophoretic mobility shift assay
[8] = target: T2, Serine/threonine-protein kinase pim-3 (Homo sapiens, UniProt Q86V86); experiment: Inhibition of PIM3 (unknown origin) using FL-Peptide 1 (5-FAM-AKRRRLSSLRA-COOH) substrate incubated for 2 hrs by electrophoretic mobility shift assay
CYP2D6 = CYP2D6 (Homo sapiens, UniProt P10635); experiment: Inhibition of CYP2D6 (unknown origin) at 10 uM; type: ADME
Chain of CYP2D6 (P10635 whole entry): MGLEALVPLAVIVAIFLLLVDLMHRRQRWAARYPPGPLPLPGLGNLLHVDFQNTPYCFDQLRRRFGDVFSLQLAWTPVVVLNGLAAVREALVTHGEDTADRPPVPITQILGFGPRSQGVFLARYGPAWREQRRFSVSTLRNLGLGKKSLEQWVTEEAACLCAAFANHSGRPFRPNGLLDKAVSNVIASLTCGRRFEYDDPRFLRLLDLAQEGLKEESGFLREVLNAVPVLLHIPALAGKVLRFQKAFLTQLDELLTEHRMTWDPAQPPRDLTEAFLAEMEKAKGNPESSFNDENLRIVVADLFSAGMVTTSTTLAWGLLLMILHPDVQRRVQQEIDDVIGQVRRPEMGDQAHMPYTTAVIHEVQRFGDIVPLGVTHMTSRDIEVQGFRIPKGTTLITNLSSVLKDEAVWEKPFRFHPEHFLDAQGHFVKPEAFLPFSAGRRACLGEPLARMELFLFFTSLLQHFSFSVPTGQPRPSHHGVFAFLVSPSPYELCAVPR

[9] = target: Calcium/calmodulin-dependent protein kinase type IV (Homo sapiens) (UniProt Q16566); experiment: Inhibition of CaMK4 (unknown origin) at 200 nM by electrophoretic mobility shift assay
[10] = target: Serine/threonine-protein kinase pim-1 (Homo sapiens, UniProt P11309); experiment: Inhibition of PIM1 (unknown origin) at 200 nM by electrophoretic mobility shift assay
[11] = target: Tyrosine-protein kinase Lck (Homo sapiens) (UniProt P06239); experiment: Inhibition of LCK (unknown origin) at 200 nM by electrophoretic mobility shift assay
[12] = target: Protein-tyrosine kinase 2-beta (Homo sapiens) (UniProt Q14289); experiment: Inhibition of PYK2 (unknown origin) at 200 nM by electrophoretic mobility shift assay
[13] = target: Glycogen synthase kinase-3 beta (Homo sapiens, UniProt P49841); experiment: Inhibition of GSK3beta (unknown origin) at 200 nM by electrophoretic mobility shift assay
CYP3A4 = CYP3A4 (Homo sapiens, UniProt P08684); experiment: Inhibition of CYP3A4 (unknown origin) at 10 uM; type: ADME
[14] = target: Mitogen-activated protein kinase 9 (Homo sapiens) (UniProt P45984); experiment: Inhibition of JNK2 (unknown origin) at 200 nM by electrophoretic mobility shift assay
[15] = target: RAC-alpha serine/threonine-protein kinase (Homo sapiens) (UniProt P31749); experiment: Inhibition of AKT1 (unknown origin) at 200 nM by electrophoretic mobility shift assay
[16] = target: Epidermal growth factor receptor (Homo sapiens) (UniProt P00533); experiment: Inhibition of EGFR (unknown origin) at 200 nM by electrophoretic mobility shift assay
[17] = target: 3-phosphoinositide-dependent protein kinase 1 (Homo sapiens) (UniProt O15530); experiment: Inhibition of PDK1 (unknown origin) at 200 nM by electrophoretic mobility shift assay
Chain of 3-phosphoinositide-dependent protein kinase 1 (Homo sapiens) (O15530 whole entry): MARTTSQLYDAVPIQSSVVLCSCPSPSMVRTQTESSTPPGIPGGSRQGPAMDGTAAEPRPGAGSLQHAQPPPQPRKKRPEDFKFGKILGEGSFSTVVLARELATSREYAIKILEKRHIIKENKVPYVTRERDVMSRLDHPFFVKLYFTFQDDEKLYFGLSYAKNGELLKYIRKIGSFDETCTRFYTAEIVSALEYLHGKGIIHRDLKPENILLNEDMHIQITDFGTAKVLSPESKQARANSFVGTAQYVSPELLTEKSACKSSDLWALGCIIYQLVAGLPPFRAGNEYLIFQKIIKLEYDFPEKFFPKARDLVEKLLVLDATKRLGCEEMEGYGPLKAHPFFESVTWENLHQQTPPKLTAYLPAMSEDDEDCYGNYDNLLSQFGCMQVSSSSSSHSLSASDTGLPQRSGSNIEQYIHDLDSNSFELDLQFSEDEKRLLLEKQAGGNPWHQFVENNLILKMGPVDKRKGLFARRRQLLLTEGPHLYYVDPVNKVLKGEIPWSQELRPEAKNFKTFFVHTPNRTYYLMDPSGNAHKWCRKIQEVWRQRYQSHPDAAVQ

[18] = target: Insulin-like growth factor 1 receptor (Homo sapiens) (UniProt P08069); experiment: Inhibition of IGF1R (unknown origin) at 200 nM by electrophoretic mobility shift assay
[19] = target: Serine/threonine-protein kinase 4 (Homo sapiens) (UniProt Q13043); experiment: Inhibition of MST1 (unknown origin) at 200 nM by electrophoretic mobility shift assay
Chain of Serine/threonine-protein kinase 4 (Homo sapiens) (Q13043 whole entry): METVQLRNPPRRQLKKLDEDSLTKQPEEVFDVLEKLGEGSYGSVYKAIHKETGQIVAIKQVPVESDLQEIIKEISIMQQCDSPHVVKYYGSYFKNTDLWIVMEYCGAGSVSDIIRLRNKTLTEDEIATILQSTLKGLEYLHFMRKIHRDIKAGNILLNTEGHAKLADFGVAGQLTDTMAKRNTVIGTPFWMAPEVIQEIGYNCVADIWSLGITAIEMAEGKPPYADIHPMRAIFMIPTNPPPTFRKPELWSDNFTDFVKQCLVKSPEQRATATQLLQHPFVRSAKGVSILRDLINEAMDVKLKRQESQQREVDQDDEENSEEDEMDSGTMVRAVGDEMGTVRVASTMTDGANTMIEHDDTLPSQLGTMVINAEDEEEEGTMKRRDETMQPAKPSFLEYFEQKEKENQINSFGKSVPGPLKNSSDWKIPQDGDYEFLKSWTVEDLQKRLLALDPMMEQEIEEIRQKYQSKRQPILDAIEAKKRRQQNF

[20] = target: RAF proto-oncogene serine/threonine-protein kinase (Homo sapiens) (UniProt P04049); experiment: Inhibition of RAF1 (unknown origin) at 200 nM by ELISA
[21] = target: Serine/threonine-protein kinase D2 (Homo sapiens) (UniProt Q9BZL6); experiment: Inhibition of PKD2 (unknown origin) at 200 nM by electrophoretic mobility shift assay
Chain of Serine/threonine-protein kinase D2 (Homo sapiens) (Q9BZL6 whole entry): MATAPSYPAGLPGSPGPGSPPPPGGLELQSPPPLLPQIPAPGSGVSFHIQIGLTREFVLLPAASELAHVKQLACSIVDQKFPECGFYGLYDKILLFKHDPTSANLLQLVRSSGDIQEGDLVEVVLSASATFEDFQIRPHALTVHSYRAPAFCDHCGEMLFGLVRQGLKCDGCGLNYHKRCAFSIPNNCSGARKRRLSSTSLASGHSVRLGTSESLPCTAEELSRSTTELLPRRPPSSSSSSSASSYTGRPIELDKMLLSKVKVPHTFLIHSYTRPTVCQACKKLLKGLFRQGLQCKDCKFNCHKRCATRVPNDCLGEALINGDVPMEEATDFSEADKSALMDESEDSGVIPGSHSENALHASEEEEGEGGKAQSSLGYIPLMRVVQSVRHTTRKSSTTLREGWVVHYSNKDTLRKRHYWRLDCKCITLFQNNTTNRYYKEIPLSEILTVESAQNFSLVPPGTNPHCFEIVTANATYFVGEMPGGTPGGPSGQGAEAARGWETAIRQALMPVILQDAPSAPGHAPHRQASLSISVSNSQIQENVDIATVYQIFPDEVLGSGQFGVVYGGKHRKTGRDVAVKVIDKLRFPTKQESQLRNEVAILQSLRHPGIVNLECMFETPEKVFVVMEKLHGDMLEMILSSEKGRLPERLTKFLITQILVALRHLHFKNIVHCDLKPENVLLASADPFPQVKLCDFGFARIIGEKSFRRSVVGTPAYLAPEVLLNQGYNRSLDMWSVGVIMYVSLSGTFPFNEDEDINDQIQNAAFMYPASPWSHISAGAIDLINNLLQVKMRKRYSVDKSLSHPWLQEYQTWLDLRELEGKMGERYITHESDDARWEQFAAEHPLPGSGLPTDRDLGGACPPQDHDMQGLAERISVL

[22] = target: Serine/threonine-protein kinase pim-2 (Homo sapiens, UniProt Q9P1W9); experiment: Inhibition of PIM2 (unknown origin) at 200 nM by electrophoretic mobility shift assay
[23] = target: Ephrin type-B receptor 4 (Homo sapiens) (UniProt P54760); experiment: Inhibition of EPHB4 (unknown origin) at 200 nM by electrophoretic mobility shift assay
hERG (KCNH2) = hERG (KCNH2) (Homo sapiens, UniProt Q12809); experiment: Inhibition of human ERG at 10 uM by patch-clamp method
Chain of hERG (KCNH2) (Q12809 whole entry): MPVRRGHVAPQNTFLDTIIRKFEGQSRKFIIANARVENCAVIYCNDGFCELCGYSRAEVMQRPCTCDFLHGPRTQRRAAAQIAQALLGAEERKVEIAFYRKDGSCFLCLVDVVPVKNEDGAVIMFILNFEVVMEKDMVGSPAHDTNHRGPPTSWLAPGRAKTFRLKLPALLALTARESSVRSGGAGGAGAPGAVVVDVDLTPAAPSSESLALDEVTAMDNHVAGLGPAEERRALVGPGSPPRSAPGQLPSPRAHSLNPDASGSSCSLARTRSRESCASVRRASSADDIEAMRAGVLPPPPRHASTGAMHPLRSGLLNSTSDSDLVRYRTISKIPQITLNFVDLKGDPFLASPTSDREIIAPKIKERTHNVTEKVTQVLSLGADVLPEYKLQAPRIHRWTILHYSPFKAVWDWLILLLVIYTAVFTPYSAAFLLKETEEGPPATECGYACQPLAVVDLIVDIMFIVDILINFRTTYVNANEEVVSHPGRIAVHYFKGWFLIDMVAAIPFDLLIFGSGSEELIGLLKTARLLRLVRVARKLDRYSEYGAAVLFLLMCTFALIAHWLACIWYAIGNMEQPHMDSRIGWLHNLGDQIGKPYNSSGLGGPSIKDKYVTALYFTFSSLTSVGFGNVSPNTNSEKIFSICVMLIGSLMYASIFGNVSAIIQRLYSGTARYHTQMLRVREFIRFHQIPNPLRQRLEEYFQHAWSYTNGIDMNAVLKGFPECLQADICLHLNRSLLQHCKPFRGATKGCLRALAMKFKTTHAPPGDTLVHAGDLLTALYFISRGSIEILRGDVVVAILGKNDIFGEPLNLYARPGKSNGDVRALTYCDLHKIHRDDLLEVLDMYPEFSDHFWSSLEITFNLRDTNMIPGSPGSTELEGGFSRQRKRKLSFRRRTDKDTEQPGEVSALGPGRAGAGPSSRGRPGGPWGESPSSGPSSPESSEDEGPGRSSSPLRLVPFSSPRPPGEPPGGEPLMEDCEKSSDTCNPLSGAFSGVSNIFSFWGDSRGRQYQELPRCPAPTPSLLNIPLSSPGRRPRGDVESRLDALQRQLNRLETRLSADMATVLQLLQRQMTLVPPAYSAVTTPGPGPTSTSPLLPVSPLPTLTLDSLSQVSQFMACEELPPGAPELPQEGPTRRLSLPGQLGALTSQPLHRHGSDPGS

[24] = target: Tyrosine-protein kinase CSK (Homo sapiens) (UniProt P41240); experiment: Inhibition of CSK (unknown origin) at 200 nM by electrophoretic mobility shift assay
[25] = target: T2, Serine/threonine-protein kinase pim-3; experiment: Inhibition of PIM3 (unknown origin) at 200 nM by electrophoretic mobility shift assay
[26] = target: Vascular endothelial growth factor receptor 2 (Homo sapiens) (UniProt P35968); experiment: Inhibition of KDR (unknown origin) at 200 nM by electrophoretic mobility shift assay
Chain of Vascular endothelial growth factor receptor 2 (Homo sapiens) (P35968 whole entry): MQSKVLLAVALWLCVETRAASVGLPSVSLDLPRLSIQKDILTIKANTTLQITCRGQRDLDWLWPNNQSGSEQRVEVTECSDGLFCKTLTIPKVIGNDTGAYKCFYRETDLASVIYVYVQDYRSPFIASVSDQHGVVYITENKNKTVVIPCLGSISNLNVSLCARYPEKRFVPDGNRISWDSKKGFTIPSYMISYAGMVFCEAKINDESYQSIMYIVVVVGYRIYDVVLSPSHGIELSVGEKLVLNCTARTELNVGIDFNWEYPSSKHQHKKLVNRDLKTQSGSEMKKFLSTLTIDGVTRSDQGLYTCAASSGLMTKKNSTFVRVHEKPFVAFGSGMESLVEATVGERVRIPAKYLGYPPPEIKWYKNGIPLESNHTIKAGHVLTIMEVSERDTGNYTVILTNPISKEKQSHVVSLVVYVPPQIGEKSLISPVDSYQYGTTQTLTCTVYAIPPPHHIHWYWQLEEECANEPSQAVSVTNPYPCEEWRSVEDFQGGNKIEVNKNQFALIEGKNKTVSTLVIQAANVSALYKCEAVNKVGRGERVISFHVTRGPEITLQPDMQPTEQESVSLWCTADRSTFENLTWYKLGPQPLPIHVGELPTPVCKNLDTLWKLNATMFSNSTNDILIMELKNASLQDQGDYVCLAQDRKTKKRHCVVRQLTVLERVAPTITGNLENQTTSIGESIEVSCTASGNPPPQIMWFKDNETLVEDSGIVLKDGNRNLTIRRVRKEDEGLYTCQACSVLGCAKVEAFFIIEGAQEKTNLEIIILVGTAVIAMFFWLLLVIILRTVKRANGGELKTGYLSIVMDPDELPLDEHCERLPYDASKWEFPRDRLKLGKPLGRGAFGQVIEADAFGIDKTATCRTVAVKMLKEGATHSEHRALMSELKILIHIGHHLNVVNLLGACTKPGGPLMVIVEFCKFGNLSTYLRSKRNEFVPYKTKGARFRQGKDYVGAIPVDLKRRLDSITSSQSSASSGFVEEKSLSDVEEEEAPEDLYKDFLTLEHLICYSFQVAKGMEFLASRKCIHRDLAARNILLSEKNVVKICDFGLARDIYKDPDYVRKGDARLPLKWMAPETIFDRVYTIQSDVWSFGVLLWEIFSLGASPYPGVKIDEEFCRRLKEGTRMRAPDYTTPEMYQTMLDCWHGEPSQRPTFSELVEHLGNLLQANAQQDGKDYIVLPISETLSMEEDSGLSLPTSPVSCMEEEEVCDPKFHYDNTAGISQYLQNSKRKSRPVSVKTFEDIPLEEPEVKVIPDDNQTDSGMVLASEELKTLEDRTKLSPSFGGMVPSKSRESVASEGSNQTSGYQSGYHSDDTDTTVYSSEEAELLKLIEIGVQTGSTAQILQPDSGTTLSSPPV

[27] = target: Tyrosine-protein kinase ABL1 (Homo sapiens) (UniProt P00519); experiment: Inhibition of ABL (unknown origin) at 200 nM by electrophoretic mobility shift assay
[28] = target: Mitogen-activated protein kinase 14 (Homo sapiens) (UniProt Q16539); experiment: Inhibition of p38alpha (unknown origin) at 200 nM by electrophoretic mobility shift assay

Compound | inhibition [1] | inhibition [2] | solubility [3] | inhibition [4] | inhibition at 10 µM (CYP1A2) | inhibition [5] | inhibition at 10 µM (CYP2C9) | inhibition (Homo sapiens) | pIC50 [6] | inhibition [7] | pIC50 [8] | inhibition at 10 µM (CYP2D6) | inhibition [9] | inhibition [10] | inhibition [11] | inhibition [12] | inhibition [13] | inhibition at 10 µM (CYP3A4) | inhibition [14] | inhibition [15] | other results
COc1ccc2c(c1C(C)N1CCNCC1)O/C(=C\c1n[nH]c3ncccc13)C2=O (stereo not drawn) | 0.5% | 2% | 558 µM (≈ 226 µg/mL) | -0.5% | 2% | 94.9% | < 1% | 47.3% | 5.40 | 83.6% | 8.60 | 14% | -1.5% | 99.4% | 0.1% | 11.2% | 95% | < 1% | -0.5% | 1.7% | inhibition [16]: -1%; inhibition [17]: 0.2%; inhibition [18]: 1.1%; inhibition [19]: -7.4%; inhibition [20]: -9.9%; inhibition [21]: 13.1%; inhibition [22]: 30.2%; inhibition [23]: 9.4%; inhibition at 10 µM (hERG (KCNH2)): 34%; inhibition [24]: 0.9%; inhibition [25]: 99%; inhibition [26]: 2%; inhibition [27]: 1%; inhibition [28]: -1%
COc1ccc2c(c1CN1CCNCC1)O/C(=C\c1n[nH]c3ncccc13)C2=O | -2.3% | 3.5% | 182 µM (≈ 71.2 µg/mL) | 3.1% | 33% | 80.5% | < 1% | 66.5% | 5.25 | 82.5% | 8.74 | 23% | -4.6% | 102% | -5.2% | -0.4% | 76.5% | 39% | 1.8% | -0.2% | inhibition [16]: -8%; inhibition [17]: -3.7%; inhibition [18]: -3%; inhibition [19]: -2.3%; inhibition [20]: 11.3%; inhibition [21]: 31.6%; inhibition [22]: 28.4%; inhibition [23]: -3.1%; inhibition at 10 µM (hERG (KCNH2)): 34%; inhibition [24]: -5.8%; inhibition [25]: 102%; inhibition [26]: -5%; inhibition [27]: -4.1%; inhibition [28]: -1.8%
